Laboratory results published in ChEMBL document CHEMBL6153034, “Synthesis of dolutegravir derivatives modified by 1,2,3-triazole structure and their anti-inflammatory activity in LPS-induced BV2 cells” (Bioorg Med Chem Lett, 2025).
Values belong to the compound of their own block, whether it stands above or below them.

Legend:
BV-2 [1] = experiment: Antiinflammatory activity in LPS induced mouse BV-2 cells assessed as inhibition of NO production by Griess reagent based assay; assay type: functional, cell-based
[2] = Cytotoxicity against mouse BV-2 cells assessed as cell viability at 10 uM by MTT assay relative to control; assay type: toxicity, cell-based; details: read-out: Activity
BV-2 [3] = experiment: Antiinflammatory activity in LPS induced mouse BV-2 cells assessed as NO production at 1 uM by Griess reagent based assay relative to control
BV-2 [4] = experiment: Antiinflammatory activity in LPS induced mouse BV-2 cells assessed as NO production at 10 uM by Griess reagent based assay relative to control
[5] = Cytotoxicity against mouse BV-2 cells assessed as cell viability at 1 uM by MTT assay relative to control; assay type: toxicity, cell-based; details: read-out: Activity
BV-2 [6] = experiment: Antiinflammatory activity in LPS-induced mouse BV-2 cells assessed as reduction in NO release relative to control; assay type: functional; design: scale not given: the % may be the effect or the level left
[7] = system: Human immunodeficiency virus 1; experiment: Antiviral activity against HIV-1 infected in human C8166 cells assessed as inhibition of virus-induced cytopathic effect; assay type: functional, organism-based; details: Human immunodeficiency virus 1, C8166
RAW264.7 = experiment: Antiinflammatory activity in LPS-induced mouse RAW264.7 cells assessed as inhibition of NO production; assay type: functional, cell-based
[8] = system: Human immunodeficiency virus 1; experiment: Antiviral activity against HIV-1; assay type: functional, organism-based

IC50 (BV-2 [1]): 11 µM
SMILES: COc1ccccc1-n1cc(-c2cccc(NC(=O)c3cn4c(c(OC)c3=O)C(=O)N3[C@H](C)CCO[C@H]3C4)c2)nn1
viability at 10 µM [2]: 76.8%
level, % of control at 1 µM (BV-2 [3]): 76%
level, % of control at 10 µM (BV-2 [4]): 48.6%
viability at 1 µM [5]: 109%

SMILES: CC(=O)Oc1ccc2c(=O)c(-c3ccc(-n4cc(-c5ccc6c(c5)C(=O)N5CCCC5C(=O)N6)nn4)cc3)coc2c1 (stereo not drawn)
Activity (BV-2 [6]): 64.28%

IC50 (BV-2 [1]): 5.03 µM
SMILES: COc1c2n(cc(C(=O)Nc3cccc(-c4cn(-c5ccccc5I)nn4)c3)c1=O)C[C@@H]1OCC[C@@H](C)N1C2=O
viability at 10 µM [2]: 89.2%
level, % of control at 1 µM (BV-2 [3]): 78.4%
level, % of control at 10 µM (BV-2 [4]): 52.1%
viability at 1 µM [5]: 96.4%

EC50 [7]: < 10 µM
IC50 (RAW264.7): < 10 µM
SMILES: C=CC(C)(C)c1cc2cc([C@@H](O)[C@@H](O)C(C)(C)O)c(O)cc2oc1=O

IC50 (BV-2 [1]): 9.68 µM
SMILES: COc1c2n(cc(C(=O)Nc3cccc(-c4cn(-c5c(C)cc(C)cc5C)nn4)c3)c1=O)C[C@@H]1OCC[C@@H](C)N1C2=O
viability at 10 µM [2]: 96.7%
level, % of control at 1 µM (BV-2 [3]): 85.1%
level, % of control at 10 µM (BV-2 [4]): 46%
viability at 1 µM [5]: 102%

EC50 [8]: < 10 µM
IC50 (RAW264.7): < 10 µM
SMILES: Cc1ccc([C@@](C)(O)CC[C@@H](O)C(C)(C)O)cc1

SMILES: COc1c2n(cc(C(=O)Nc3cccc(-c4cn(-c5ccc(F)cc5)nn4)c3)c1=O)C[C@@H]1OCC[C@@H](C)N1C2=O
viability at 10 µM [2]: 69.2%
level, % of control at 1 µM (BV-2 [3]): 76.6%
level, % of control at 10 µM (BV-2 [4]): 77%
viability at 1 µM [5]: 111%

SMILES: COc1c2n(cc(C(=O)Nc3ccccc3-c3cn(-c4cc(C(F)(F)F)cc(C(F)(F)F)c4)nn3)c1=O)C[C@@H]1OCC[C@@H](C)N1C2=O
viability at 10 µM [2]: 112%
level, % of control at 1 µM (BV-2 [3]): 86.6%
level, % of control at 10 µM (BV-2 [4]): 73%
viability at 1 µM [5]: 104%

SMILES: CCc1ccccc1-n1cc(-c2cccc(NC(=O)c3cn4c(c(OC)c3=O)C(=O)N3[C@H](C)CCO[C@H]3C4)c2)nn1
viability at 10 µM [2]: 49.8%
level, % of control at 1 µM (BV-2 [3]): 94.5%
level, % of control at 10 µM (BV-2 [4]): 59.9%
viability at 1 µM [5]: 101%

SMILES: COc1c2n(cc(C(=O)Nc3cccc(-c4cn(-c5c(C)cc(C)cc5C)nn4)c3)c1=O)C[C@H]1OC[C@H](C)N1C2=O
viability at 10 µM [2]: 49.3%
level, % of control at 1 µM (BV-2 [3]): 116%
level, % of control at 10 µM (BV-2 [4]): 89.6%
viability at 1 µM [5]: 94.6%

SMILES: CCc1ccccc1-n1cc(-c2ccccc2NC(=O)c2cn3c(c(OC)c2=O)C(=O)N2[C@H](C)CCO[C@H]2C3)nn1
viability at 10 µM [2]: 94.7%
level, % of control at 1 µM (BV-2 [3]): 86.7%
level, % of control at 10 µM (BV-2 [4]): 76.3%
viability at 1 µM [5]: 111%

SMILES: COc1c2n(cc(C(=O)Nc3cccc(-c4cn(-c5ccccc5F)nn4)c3)c1=O)C[C@@H]1OCC[C@@H](C)N1C2=O
viability at 10 µM [2]: 68.6%
level, % of control at 1 µM (BV-2 [3]): 91.7%
level, % of control at 10 µM (BV-2 [4]): 53.7%
viability at 1 µM [5]: 103%

SMILES: COc1c2n(cc(C(=O)Nc3ccc(-c4cn(-c5ccccc5I)nn4)cc3)c1=O)C[C@@H]1OCC[C@@H](C)N1C2=O
viability at 10 µM [2]: 98.2%
level, % of control at 1 µM (BV-2 [3]): 98.2%
level, % of control at 10 µM (BV-2 [4]): 106%
viability at 1 µM [5]: 110%
